What was measured:
Glucagon receptor [1] = molecular target: T1, Glucagon receptor (Rattus norvegicus, UniProt P30082); test: Effective concentration was determined in cAMP accumulation assay using isolated hepatocytes in the presence rolipram.; type: functional, cell-based; conditions: hepatocyte
Glucagon receptor [2] = molecular target: T1, Glucagon receptor; test: (§1) Binding affinity towards Glucagon receptor in rat liver plasma membranes by displacement of 125 I-labelled glucagon; type: cell membranes
Glucagon receptor [3] = molecular target: T1, Glucagon receptor; test: pA2 value against Glucagon Receptor; conditions: read-out: pA2 (converted)
Glucagon receptor [4] = molecular target: T1, Glucagon receptor; test: as §1; type: cell membranes, Plasma Membrane

T1 sequence (P30082 whole entry): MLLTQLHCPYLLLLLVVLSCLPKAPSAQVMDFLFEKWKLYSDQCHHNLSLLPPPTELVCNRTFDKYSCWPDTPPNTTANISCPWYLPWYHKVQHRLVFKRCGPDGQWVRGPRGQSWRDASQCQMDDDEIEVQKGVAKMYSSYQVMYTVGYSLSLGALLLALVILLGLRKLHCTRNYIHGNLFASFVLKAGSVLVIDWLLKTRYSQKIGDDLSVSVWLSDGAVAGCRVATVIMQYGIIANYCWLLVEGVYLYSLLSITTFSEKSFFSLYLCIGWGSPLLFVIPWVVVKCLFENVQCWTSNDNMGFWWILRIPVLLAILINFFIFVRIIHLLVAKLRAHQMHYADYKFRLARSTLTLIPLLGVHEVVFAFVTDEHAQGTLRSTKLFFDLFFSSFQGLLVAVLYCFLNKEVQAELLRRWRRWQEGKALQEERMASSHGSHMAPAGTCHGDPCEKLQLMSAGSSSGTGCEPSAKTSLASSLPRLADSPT

EC50 (Glucagon receptor [1]) | IC50 (Glucagon receptor [2]) | Kb (Glucagon receptor [3]) | IC50 (Glucagon receptor [4]) | SMILES
Not Active | 113 nM | 631 nM | – | CSCC[C@H](NC(=O)[C@H](CC(C)C)NC(=O)[C@H](Cc1c[nH]c2ccccc12)NC(=O)[C@H](CCC(N)=O)NC(=O)[C@@H](NC(=O)[C@H](Cc1ccccc1)NC(=O)[C@H](CC(=O)O)NC(=O)[C@H](CCC(N)=O)NC(=O)[C@H](C)NC(=O)[C@H](CCCN=C(N)N)NC(=O)[C@H](CCCN=C(N)N)NC(=O)[C@H](CO)NC(=O)[C@H](CC(=O)O)NC(=O)[C@H](CC(C)C)NC(=O)[C@H](Cc1ccc(O)cc1)NC(=O)[C@H](CCCCN)NC(=O)[C@H](CO)NC(=O)[C@H](Cc1ccc(O)cc1)NC(=O)[C@H](CCC(=O)O)NC(=O)[C@H](CO)NC(=O)[C@@H](NC(=O)[C@@H](NC(=O)CNC(=O)[C@H](CCC(N)=O)NC(=O)[C@H](CO)NC(=O)[C@@H](N)Cc1c[nH]cn1)[C@@H](C)O)[C@@H](C)O)C(C)C)C(=O)N[C@@H](CC(N)=O)C(=O)N[C@H](C(N)=O)[C@@H](C)O
Not Active | 40 nM | 631 nM | – | CSCC[C@H](NC(=O)[C@H](CC(C)C)NC(=O)[C@H](Cc1c[nH]c2ccccc12)NC(=O)[C@H](CCC(N)=O)NC(=O)[C@@H](NC(=O)[C@H](Cc1ccccc1)NC(=O)[C@H](CC(=O)O)NC(=O)[C@H](CCC(N)=O)NC(=O)[C@H](C)NC(=O)[C@H](CCCN=C(N)N)NC(=O)[C@H](CCCN=C(N)N)NC(=O)[C@H](CO)NC(=O)[C@H](CC(=O)O)NC(=O)[C@H](CC(C)C)NC(=O)[C@H](Cc1ccc(O)cc1)NC(=O)[C@H](CCCCN)NC(=O)[C@H](CO)NC(=O)[C@H](Cc1ccc(O)cc1)NC(=O)[C@H](CCC(=O)O)NC(=O)[C@H](CO)NC(=O)[C@@H](NC(=O)[C@H](Cc1ccc(O)cc1)NC(=O)[C@@H](NC(=O)CNC(=O)[C@H](CCC(N)=O)NC(=O)[C@@H](N)CO)[C@@H](C)O)[C@@H](C)O)C(C)C)C(=O)N[C@@H](CC(N)=O)C(=O)N[C@H](C(N)=O)[C@@H](C)O
– | – | 398 nM | 126 nM | CSCC[C@H](NC(=O)[C@H](CC(C)C)NC(=O)[C@H](Cc1c[nH]c2ccccc12)NC(=O)[C@H](CCC(N)=O)NC(=O)[C@@H](NC(=O)[C@H](Cc1ccccc1)NC(=O)[C@H](CC(=O)O)NC(=O)[C@H](CCC(N)=O)NC(=O)[C@H](C)NC(=O)[C@H](CCCNC(=N)N)NC(=O)[C@H](CCCNC(=N)N)NC(=O)[C@H](CO)NC(=O)[C@H](CC(=O)O)NC(=O)[C@H](CC(C)C)NC(=O)[C@H](Cc1ccc(O)cc1)NC(=O)[C@H](CCCCN)NC(=O)[C@H](CO)NC(=O)[C@H](Cc1ccc(O)cc1)NC(=O)[C@H](CCC(=O)O)NC(=O)[C@H](CO)NC(=O)[C@@H](NC(=O)[C@H](C)NC(=O)[C@@H](NC(=O)CNC(=O)[C@H](CCC(N)=O)NC(=O)[C@@H](N)CO)[C@@H](C)O)[C@@H](C)O)C(C)C)C(=O)N[C@@H](CC(N)=O)C(=O)N[C@H](C(N)=O)[C@@H](C)O
Not Active | 512 nM | 501 nM | – | CSCC[C@H](NC(=O)[C@H](CC(C)C)NC(=O)[C@H](Cc1c[nH]c2ccccc12)NC(=O)[C@H](CCC(N)=O)NC(=O)[C@@H](NC(=O)[C@H](Cc1ccccc1)NC(=O)[C@H](CC(=O)O)NC(=O)[C@H](CCC(N)=O)NC(=O)[C@H](C)NC(=O)[C@H](CCCN=C(N)N)NC(=O)[C@H](CCCN=C(N)N)NC(=O)[C@H](CO)NC(=O)[C@H](CC(=O)O)NC(=O)[C@H](CC(C)C)NC(=O)[C@H](Cc1ccc(O)cc1)NC(=O)[C@H](CCCCN)NC(=O)[C@H](CO)NC(=O)[C@H](Cc1ccc(O)cc1)NC(=O)[C@H](CC(=O)O)NC(=O)[C@H](CO)NC(=O)[C@@H](NC(=O)[C@@H](NC(=O)CNC(=O)[C@H](CCC(N)=O)NC(=O)[C@H](CO)NC(=O)[C@@H](N)Cc1c[nH]cn1)[C@@H](C)O)[C@@H](C)O)C(C)C)C(=O)N[C@@H](CC(N)=O)C(=O)N[C@H](C(N)=O)[C@@H](C)O
